Source: ChEMBL document CHEMBL1148090, “Antibacterial and antifungal sulfated alkane and alkenes from the hepatopancreas of the ascidian Halocynthia roretzi” (1994)

Key:
Vibrio alginolyticus = test: Antimicrobial activity against Vibrio alginolyticus ATCC 17749 at 0.2 ug/disk after 24 hrs by paper disk method; type: functional; conditions: ATCC 17749, 24 h, read-out: IZ
Umbelopsis ramanniana = test: Antimicrobial activity against Mortierella ramanniana at 0.2 ug/disk after 24 hrs by paper disk method; type: functional; conditions: read-out: IZ

SMILES | zone of inhibition at 0.2 µg/disc (Vibrio alginolyticus) [mm] | zone of inhibition at 0.2 µg/disc (Umbelopsis ramanniana) [mm]
CC(C)CCCC(C)COS(=O)(=O)O (stereo not drawn) | 12 | 10
CC/C=C\C/C=C\CCCOS(=O)(=O)O | 12 | 10
CC/C=C/C/C=C\CCCOS(=O)(=O)O | 12 | 10
C=CC/C=C\C/C=C\CCOS(=O)(=O)O | 12 | 10
